Consider four compounds from article PMC10707942, “Polyaromatic Bis(indolyl)methane Derivatives with Antiproliferative and Antiparasitic Activity” (Molecules, 2023).

One assay has as its system HT-29 cell line. Details: method as in PMID 30715794. Particulars: cited from earlier work.
A further assay has as its system Leishmania donovani. Also noted: method as in PMID 18703668, PMID 17922678. The conditions noted are these: cited from earlier work.
A further assay has as its system L. major. The assay is described as follows: Leishmanicidal activity, MTT-based assay. In kind it is cell-based, Leishmania major. Particulars: for IC50: Leishmania major, promastigotes, 72 h, MTT, error reported as σ; for Selectivity Index (SI) L. major: SI = IC50 MRC-5/IC50 L. major. On the procedure: (§1) The biological activity of the bis(indolyl)methane derivatives 2a–c were evaluated on in vitro models of parasites (T. brucei and L. major), human cancer cells (HeLa and HT-29) and human healthy cells (MRC-5). The toxicity of the BIM derivatives was determined through alamarBlue assay (for T. brucei and MRC-5) or MTT assay (for L. major), and the results are expressed as the concentration of the compound that reduces cell viability by 50% calculated through dose-response curves to give half maximal inhibitory concentration (IC50) (see Figures S7–S11).
L. major (MHOM/IL/80/Friedlin) promastigotes were cultured at 28 °C, 5% CO2 in modified RPMI-1640 medium (Invitrogen, Carlsbad, CA, USA) supplemented with 10% hiFBS [45]. Parasites were maintained in culture in their experimental growth phase (below 2 million parasites per mL for T. brucei and 10 million parasites per mL for L. major).
The leishmanicidal activity of the compounds was determined using MTT-based assay (Sigma-Aldrich, St. Louis, MO, USA). The stock solutions of the compounds were prepared in DMSO, and the final DMSO percentage in each well was adjusted to be less than 1%. A total of 4 × 10^6 parasites per mL were incubated at 28 °C in 96-well plates (50 μL/well) alone or in the presence of an increasing concentration of compounds DMSO for 72 h. A total of 10 μL of MTT (5 mg/mL) was added to each well, and parasites were incubated for 4 h at 28 °C. Finally, cells were lysed with 50 μL/well of 20% SDS. The plate was incubated at 37 °C for an extra hour; then, the absorbance was measured with the Infinite F200 plate reader (TECAN Austria, GmbH, Grödig, Austria) at a wavelength of 540 nm. The IC50 was calculated as described above. Data are presented as the average of at least three independent measurements all conducted in triplicate.
A general note: Tetrazolium dyes change colour on reduction, which living cells bring about.

The next assay relates to T. brucei. The experiment in a line: Trypanocidal activity, alamarBlue assay. It counts as cell-based, Trypanosoma brucei. The conditions noted are these: for Selectivity Index (SI) T. brucei: SI = IC50 MRC-5/IC50 T. brucei; for IC50: Trypanosoma brucei, 72 h, alamarBlue, error reported as σ. On the procedure: The trypanocidal activity of the compounds was assessed using the alamarBlue® assay (ThermoFisher Scientific, Waltham, MA, USA). […] Finally, cells were lysed with 50 μL per well of SDS 3%. The plate was incubated at 37 °C for an extra hour; then, the fluorescence intensity was measured with an Infinite F200 plate reader (Tecan Austria, GmbH, Grödig, Austria), exciting at 550 nm and recording the emission at 590 nm. The results are expressed as the concentration of the compound that reduces cell growth by 50% versus untreated control cells (IC50). Data are presented as the average of at least three independent measurements all conducted in triplicate.
Background: Alamar Blue is a resazurin reagent that responds to reducing activity.

Assay [1] has as its system MRC-5 cell line (human lung fibroblast). The experiment in a line: Cytotoxicity in healthy cell line, alamarBlue assay. In kind it is cell-based. Particulars: MRC5, 72 h, error reported as σ. On the procedure: as §1
MRC-5 cell line (human lung fibroblast) was grown in monolayer at 37 °C, 5% CO2 in DMEM medium (1 g/L glucose) supplemented with 10% hiFBS, 100 U/mL penicillin, […] streptomycin and 2 mM L-glutamine.
(§2) Cytotoxicity was measured in MRC-5, HeLa and HT-29 cell lines using alamarBlue® assay (ThermoFisher Scientific). The stock solutions of the compounds were prepared in DMSO, and the final DMSO percentage in each well was adjusted to be less than 1%. A total of 5 × 10^3 cells per mL (MRC-5, HeLa or HT-29 cells) were seeded in 96-well plates (100 μL/well) with 24 h of incubation time before compound addition at 37 °C, 5% CO2. Then, the compounds were added at increasing concentrations (from 0 to 100 μM), and the plates were incubated for 72 h. A total of 20 μL of resazurin solution (110 ng/mL) was added to each well, and cells were incubated for 4 h. Then, cells were lysed with 50 μL/well of 3% SDS. The plate was incubated at 37 °C for an extra hour; then, the fluorescence intensity was measured with the Infinite F200 plate reader (TECAN Austria, GmbH), exciting at 550 nm and recording the emission at 590 nm. The results are expressed as the concentration of compound that reduces cell growth by 50% versus untreated control cells (IC50). Data are presented as the average of at least three independent measurements all conducted in triplicate.

Assay [2] concerns HT-29 (human colorectal adenocarcinoma). The experiment in a line: Cytotoxicity in cancer cell line, alamarBlue assay. It counts as cell-based. Particulars: for IC50: Homo sapiens, HT-29, 72 h, alamarBlue, error reported as σ; for Selectivity Index (SI) HT-29: SI = IC50 MRC-5/IC50 HT-29. On the procedure: (§3) HeLa (human cervical carcinoma) and HT-29 (human colorectal adenocarcinoma) cell lines were maintained at 37 °C, 5% CO2 in high glucose DMEM (4.5 g/L glucose) supplemented with 10% hiFBS, 100 U/mL penicillin, […] streptomycin, 2 mM L-glutamine and non-essential amino acids (1X). Cells were plated and passaged according to ATCC recommendations and were used for the experiments while in the exponential growth phase.
as §2

Assay [3] deals with HeLa (human cervical carcinoma). The experiment in a line: Cytotoxicity in cancer cell line, alamarBlue assay. The conditions noted are these: for IC50: Homo sapiens, HeLa, 72 h, alamarBlue, error reported as σ; for Selectivity Index (SI) HeLa: SI = IC50 MRC-5/IC50 HeLa. It counts as cell-based. On the procedure:
as §3, §2

Some results are limits rather than exact numbers.

For the compound `c1ccc2c(Cc3c[nH]c4ccccc34)c[nH]c2c1` [Arundine, 3,3-diindolylmethane], the half-maximal inhibitory concentration (IC50) (usually the midpoint of a concentration-inhibition curve) in the assay on HT-29 cell line is over 100 µM; with Leishmania donovani, 1.2 µM.
Regarding `c1ccc(N(c2ccccc2)c2ccc(C(c3c[nH]c4ccccc34)c3c[nH]c4ccccc34)cc2)cc1` [Compound 2a], the IC50 in the assay with L. major turned out to be 3.3 ± 0.25 µM; in the assay with T. brucei, 3.21 ± 0.04 µM; in assay [1] it was 33.7 ± 3.19 µM; in assay [2], 3.93 ± 0.49 µM; in assay [3], 37.5 ± 1.86 µM. Further, the “Selectivity Index (SI) L. major” value with L. major is given as 10.21. In addition, the “Selectivity Index (SI) T. brucei” value in the assay on T. brucei was determined as 10.50. In assay [2], the “Selectivity Index (SI) HT-29” value worked out at 8.57. In addition, the “Selectivity Index (SI) HeLa” value in assay [3] came to 0.90.
For `CN(C)c1ccc(C(c2c[nH]c3ccccc23)c2c[nH]c3ccccc23)c2ccccc12` [Compound 2b], the IC50 is over 100 µM in the assay on L. major; 16 ± 4.44 µM in the assay with T. brucei; 94.9 ± 7.27 µM in assay [1]; 25.4 ± 5.23 µM in assay [2]; 89.56 ± 0.15 µM in assay [3]. In addition, in the assay with L. major, the “Selectivity Index (SI) L. major” value is reported as under 0.95. The “Selectivity Index (SI) T. brucei” value with T. brucei stood at 5.93. In assay [2], the “Selectivity Index (SI) HT-29” value is 3.73. For the same compound, in assay [3], the “Selectivity Index (SI) HeLa” value came out at 1.06.
Turning to `Oc1cccc2ccc(C(c3c[nH]c4ccccc34)c3c[nH]c4ccccc34)nc12` [Compound 2c], the IC50 with L. major was found to be 20.7 ± 1.71 µM; in the assay on T. brucei, 14.66 ± 0.05 µM; in assay [1], 3.25 ± 0.29 µM; in assay [2], 71.4 ± 3.99 µM; in assay [3], 28.3 ± 5.01 µM. Further, in assay [2], the “Selectivity Index (SI) HT-29” value worked out at 0.05. The “Selectivity Index (SI) HeLa” value in assay [3] is given as 0.11.
